Assay results published in patent US8802597B2, “Herbicidal pyrimidines” (E I du Pont de Nemours and Company, priority 2003, dated 2014).
Where two headings read alike, the source gives them in different places.

Key:
Type in all cases: in vivo
wild oat (Avena fatua) = test: Test B postemergence; conditions: Avena fatua, post-emergence
Procedure, shortened: (§1)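 Greenhouse whole-plant test; surfactant-containing non-phytotoxic solvent formulation; pre- and postemergence applications made simultaneously; post plants 2–18 cm, 1- to 4-leaf; visual scoring at 13–15 days on 0–100 scale relative to controls.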

[1] = system: blackgrass (Alopecurus myosuroides); test: Test B postemergence; conditions: Alopecurus myosuroides, post-emergence
Procedure, shortened: as §1

rice (Oryza sativa) = test: Test B flooded paddy test; conditions: Oryza sativa, Flood, 1000 g ai/ha; scale 0 to 100; read-out: Plant response rating, Rice
Procedure, shortened: (§2)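 Plants were grown to the 2-leaf stage before treatment, then kept in a greenhouse for 13 to 15 days. Injury was rated visually against untreated controls on a 0 to 100 scale, where 0 is no effect and 100 is complete control.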

[2] = system: barnyardgrass (Echinochloa crus-galli); test: Test B flooded paddy test; conditions: Echinochloa crus-galli, Flood, 1000 g ai/ha; scale 0 (no effect) to 100 (complete control); read-out: Plant response rating, Barnyardgrass
Procedure, shortened: as §2

[3] = system: duck salad (Heteranthera limosa); test: Test B flooded paddy test; conditions: Heteranthera limosa, Flood, 1000 g ai/ha; scale 0 to 100; read-out: Plant response rating, Ducksalad
Procedure, shortened: as §2

[4] = system: umbrella sedge (Cyperus difformis); test: Test B flooded paddy test; conditions: Cyperus difformis, Flood, 1000 g ai/ha; scale 0 to 100; read-out: Plant response rating, Sedge, Umbrella
Procedure, shortened: as §2

[5] = system: velvetleaf (Abutilon theophrasti); test: Test B pre/postemergence; conditions: Abutilon theophrasti; for pest or weed control at 125 g/ha: 125 g ai/ha; for pest or weed control at 500 g/ha: 500 g ai/ha
Procedure, shortened: as §1

[6] = system: morningglory (Ipomoea coccinea); test: Test B pre/postemergence; conditions: Ipomoea; for pest or weed control at 125 g/ha: 125 g ai/ha; for pest or weed control at 500 g/ha: 500 g ai/ha
Procedure, shortened: as §1

[7] = system: pigweed (Amaranthus retroflexus); test: Test B pre/postemergence; conditions: Amaranthus retroflexus; for pest or weed control at 125 g/ha: 125 g ai/ha; for pest or weed control at 500 g/ha: 500 g ai/ha
Procedure, shortened: as §1

[8] = system: barnyardgrass (Echinochloa crus-galli); test: Test B pre/postemergence; conditions: Echinochloa crus-galli; for pest or weed control at 125 g/ha: 125 g ai/ha; for pest or weed control at 500 g/ha: 500 g ai/ha
Procedure, shortened: as §1

[9] = system: Surinam grass (Brachiaria decumbens); test: Test B pre/postemergence; conditions: Urochloa decumbens; for pest or weed control at 125 g/ha: 125 g ai/ha; for pest or weed control at 500 g/ha: 500 g ai/ha
Procedure, shortened: as §1

[10] = system: crabgrass (Digitaria sanguinalis); test: Test B pre/postemergence; conditions: Digitaria sanguinalis; for pest or weed control at 125 g/ha: 125 g ai/ha; for pest or weed control at 500 g/ha: 500 g ai/ha
Procedure, shortened: as §1

[11] = system: wheat (Triticum aestivum); test: Test B pre/postemergence; conditions: Triticum aestivum; for plant injury at 125 g/ha: 125 g ai/ha; for plant injury at 500 g/ha: 500 g ai/ha
Procedure, shortened: as §1

[12] = system: giant foxtail (Setaria faberii); test: Test B pre/postemergence; conditions: Setaria faberi; for pest or weed control at 125 g/ha: 125 g ai/ha; for pest or weed control at 500 g/ha: 500 g ai/ha
Procedure, shortened: as §1

[13] = system: cocklebur (Xanthium strumarium); test: Test B pre/postemergence; conditions: Xanthium strumarium; for pest or weed control at 125 g/ha: 125 g ai/ha; for pest or weed control at 500 g/ha: 500 g ai/ha
Procedure, shortened: as §1

corn (Zea mays) = test: Test B pre/postemergence; conditions: Zea mays
Procedure, shortened: as §1

[14] = system: lambsquarters (Chenopodium album); test: Test B pre/postemergence; conditions: Chenopodium album; for pest or weed control at 125 g/ha: 125 g ai/ha; for pest or weed control at 500 g/ha: 500 g ai/ha
Procedure, shortened: as §1

## Nc1nc(C2CC2)nc(C(=O)OCc2ccccc2)c1Br [Compound 22, phenylmethyl 6-amino-5-bromo-2-cyclopropyl-4-pyrimidinecarboxylate]
Wild oat (Avena fatua); 125 g ai/ha, scale 0 to 100 (0 no effect, 100 complete control), read-out: Oat, Wild plant response rating
  pest or weed control at 125 g/ha: 10%
Wild oat (Avena fatua); 500 g ai/ha, scale 0 to 100, read-out: Plant response rating, Oat, Wild
  pest or weed control at 500 g/ha: 60%
[1]; 125 g ai/ha, scale 0 to 100 (0 no effect, 100 complete control), read-out: Blackgrass plant response rating
  pest or weed control at 125 g/ha: 60%
[1]; 500 g ai/ha, scale 0 to 100, read-out: Plant response rating, Blackgrass
  pest or weed control at 500 g/ha: 80%
Rice (Oryza sativa)
  plant injury at 1000 g/ha: 60%
[2]
  pest or weed control at 1000 g/ha: 80%
[3]
  pest or weed control at 1000 g/ha: 90%
[4]
  pest or weed control at 1000 g/ha: 50%
[5]; post-emergence, Postemergence, scale 0 to 100 (0 no effect, 100 complete control), read-out: Velvetleaf plant response rating
  pest or weed control at 125 g/ha: 100%
[5]; post-emergence, Postemergence, scale 0 to 100, read-out: Plant response rating, Velvetleaf
  pest or weed control at 500 g/ha: 100%
[5]; pre-emergence, Preemergence, scale 0 to 100 (0 no effect, 100 complete control), read-out: Plant response rating, Velvetleaf
  pest or weed control at 125 g/ha: 30%
[5]; pre-emergence, Preemergence, scale 0 to 100 (0 no effect, 100 complete control), read-out: Velvetleaf plant response rating
  pest or weed control at 500 g/ha: 100%
[6]; post-emergence, Postemergence, scale 0 to 100 (0 no effect, 100 complete control), read-out: Morningglory plant response rating
  pest or weed control at 125 g/ha: 90%
[6]; post-emergence, Postemergence, scale 0 to 100, read-out: Plant response rating, Morningglory
  pest or weed control at 500 g/ha: 100%
[6]; pre-emergence, Preemergence, scale 0 to 100 (0 no effect, 100 complete control), read-out: Plant response rating, Morningglory
  pest or weed control at 125 g/ha: 100%
[6]; pre-emergence, Preemergence, scale 0 to 100 (0 no effect, 100 complete control), read-out: Morningglory plant response rating
  pest or weed control at 500 g/ha: 100%
[7]; post-emergence, Postemergence, scale 0 to 100 (0 no effect, 100 complete control), read-out: Pigweed plant response rating
  pest or weed control at 125 g/ha: 100%
[7]; post-emergence, Postemergence, scale 0 to 100, read-out: Plant response rating, Pigweed
  pest or weed control at 500 g/ha: 100%
[7]; pre-emergence, Preemergence, scale 0 to 100 (0 no effect, 100 complete control), read-out: Plant response rating, Pigweed
  pest or weed control at 125 g/ha: 60%
[7]; pre-emergence, Preemergence, scale 0 to 100 (0 no effect, 100 complete control), read-out: Pigweed plant response rating
  pest or weed control at 500 g/ha: 80%
[8]; post-emergence, Postemergence, scale 0 to 100 (0 no effect, 100 complete control), read-out: Barnyardgrass plant response rating
  pest or weed control at 125 g/ha: 70%
[8]; post-emergence, Postemergence, scale 0 to 100, read-out: Plant response rating, Barnyardgrass
  pest or weed control at 500 g/ha: 90%
[8]; pre-emergence, Preemergence, scale 0 to 100 (0 no effect, 100 complete control), read-out: Plant response rating, Barnyardgrass
  pest or weed control at 125 g/ha: 0%
[8]; pre-emergence, Preemergence, scale 0 to 100 (0 no effect, 100 complete control), read-out: Barnyardgrass plant response rating
  pest or weed control at 500 g/ha: 20%
[9]; post-emergence, Postemergence, scale 0 to 100 (0 no effect, 100 complete control), read-out: Surinam Grass plant response rating
  pest or weed control at 125 g/ha: 80%
[9]; post-emergence, Postemergence, scale 0 to 100, read-out: Plant response rating, Surinam Grass
  pest or weed control at 500 g/ha: 90%
[9]; pre-emergence, Preemergence, scale 0 to 100 (0 no effect, 100 complete control), read-out: Plant response rating, Surinam Grass
  pest or weed control at 125 g/ha: 0%
[9]; pre-emergence, Preemergence, scale 0 to 100 (0 no effect, 100 complete control), read-out: Surinam Grass plant response rating
  pest or weed control at 500 g/ha: 20%
[10]; post-emergence, Postemergence, scale 0 to 100 (0 no effect, 100 complete control), read-out: Crabgrass plant response rating
  pest or weed control at 125 g/ha: 50%
[10]; post-emergence, Postemergence, scale 0 to 100, read-out: Plant response rating, Crabgrass
  pest or weed control at 500 g/ha: 90%
[10]; pre-emergence, Preemergence, scale 0 to 100 (0 no effect, 100 complete control), read-out: Plant response rating, Crabgrass
  pest or weed control at 125 g/ha: 20%
[10]; pre-emergence, Preemergence, scale 0 to 100 (0 no effect, 100 complete control), read-out: Crabgrass plant response rating
  pest or weed control at 500 g/ha: 100%
[11]; post-emergence, Postemergence, scale 0 to 100 (0 no effect, 100 complete control), read-out: Wheat plant response rating
  plant injury at 125 g/ha: 0%
[11]; post-emergence, Postemergence, scale 0 to 100, read-out: Plant response rating, Wheat
  plant injury at 500 g/ha: 70%
[11]; pre-emergence, Preemergence, scale 0 to 100 (0 no effect, 100 complete control), read-out: Plant response rating, Wheat
  plant injury at 125 g/ha: 10%
[11]; pre-emergence, Preemergence, scale 0 to 100 (0 no effect, 100 complete control), read-out: Wheat plant response rating
  plant injury at 500 g/ha: 50%
[12]; post-emergence, Postemergence, scale 0 to 100 (0 no effect, 100 complete control), read-out: Foxtail, Giant plant response rating
  pest or weed control at 125 g/ha: 70%
[12]; post-emergence, Postemergence, scale 0 to 100, read-out: Plant response rating, Foxtail, Giant
  pest or weed control at 500 g/ha: 80%
[12]; pre-emergence, Preemergence, scale 0 to 100 (0 no effect, 100 complete control), read-out: Plant response rating, Foxtail, Giant
  pest or weed control at 125 g/ha: 0%
[12]; pre-emergence, Preemergence, scale 0 to 100 (0 no effect, 100 complete control), read-out: Foxtail, Giant plant response rating
  pest or weed control at 500 g/ha: 20%
[13]; post-emergence, Postemergence, scale 0 to 100 (0 no effect, 100 complete control), read-out: Cocklebur plant response rating
  pest or weed control at 125 g/ha: 100%
[13]; post-emergence, Postemergence, scale 0 to 100, read-out: Plant response rating, Cocklebur
  pest or weed control at 500 g/ha: 100%
[13]; pre-emergence, Preemergence, scale 0 to 100 (0 no effect, 100 complete control), read-out: Plant response rating, Cocklebur
  pest or weed control at 125 g/ha: 50%
[13]; pre-emergence, Preemergence, scale 0 to 100 (0 no effect, 100 complete control), read-out: Cocklebur plant response rating
  pest or weed control at 500 g/ha: 80%
Corn (Zea mays); post-emergence, Postemergence, 125 g ai/ha, scale 0 to 100 (0 no effect, 100 complete control), read-out: Corn plant response rating
  plant injury at 125 g/ha: 20%
Corn (Zea mays); post-emergence, Postemergence, 500 g ai/ha, scale 0 to 100
  Corn plant response rating (crop injury, 0 = no effect, 100 = complete kill) at 500 g/ha: 80%
Corn (Zea mays); pre-emergence, Preemergence, 125 g ai/ha, scale 0 to 100 (0 no effect, 100 complete control)
  Corn plant response rating (crop injury, 0 = no effect, 100 = complete kill) at 125 g/ha: 10%
[14]; post-emergence, Postemergence, scale 0 to 100 (0 no effect, 100 complete control), read-out: Lambsquarters plant response rating
  pest or weed control at 125 g/ha: 100%
[14]; post-emergence, Postemergence, scale 0 to 100, read-out: Plant response rating, Lambsquarters
  pest or weed control at 500 g/ha: 100%
[14]; pre-emergence, Preemergence, scale 0 to 100 (0 no effect, 100 complete control), read-out: Plant response rating, Lambsquarters
  pest or weed control at 125 g/ha: 70%
[14]; pre-emergence, Preemergence, scale 0 to 100 (0 no effect, 100 complete control), read-out: Lambsquarters plant response rating
  pest or weed control at 500 g/ha: 100%
